Tested on: HEcR with αRXR
Test: Native HEcR reporter gene expression in HEK293 cells co-transfected with αRXR
Type: cell-based, Heliothis virescens
Details: αRXR co-transfected along with effector and reporter
Text: A third effector construct was made with the 5′ end sequences of pSK16.1 by PCR. The PCR approach involved PCR amplifying the 5′ end sequences using a 5′ oligonucleotide containing a HindIII restriction cloning site, the Kozak consensus sequence followed by nucleotide sequence encoding for a Methionine start and two Arginines to be added to the 5′ end of the amplified fragment: (16H3K 5′ […] 3′; SEQ ID NO: 28), the 3′ oligonucleotide used was HecrNdeI. The resulting fragment was restriction enzyme digested, gel purified and subcloned with an NdeI/NotI 19R fragment into pcDNA3 NdeI/NotI vector. The plasmid was named pcDNA3H3 KHEcR.
The reporter plasmid to be co-transfected with the expression vector contained 4 copies of the Hsp27 ecdysone response element (Riddihough and Pelham, 1987) fused to β-globin promoter and the β-Galactosidase gene. The tandem repeats of the ecdysone response element were synthesised as two complementary oligonucleotides which when annealed produced a double stranded DNA molecule flanked by an SpeI site at the 5′ end and a ClaI site at the 3′ end:
The resulting 135 bp DNA fragment was ligated to the vector pSWBGAL SpeI/ClaI resulting in pSWREcR4 (FIG. 8). The co-transfection of the two plasmids should result in B-galactosidase activity in the presence of ligand. […]

| SMILES | induction of reporter activity compared to the untreated cells [fold] |
| --- | --- |
| CC(C)CC[C@@H](O)[C@](C)(O)[C@H]1CC[C@@]2(O)C3=CC(=O)[C@]4(O)C[C@@H](O)[C@@H](O)C[C@]4(C)[C@H]3[C@H](O)C[C@]12C [Muristerone A] | 9 |
| CCc1ccc(C(=O)NN(C(=O)c2cc(C)cc(C)c2)C(C)(C)C)cc1 [RH5992, 3,5-dimethylbenzoic acid 1-1(1,1-dimethylethyl)-2(4-ethylbenzoyl)hydrazide] | 9 |
